Test results published in patent publication US20260098008A1, “COVALENT, CHEMOGENETIC ACTIVATORS FOR K2P POTASSIUM CHANNELS AND USES THEREOF” (THE REGENTS OF THE UNIVERSITY OF CALIFORNIA, priority 2022, published 2026).
Where a chain is given by its changes, count along the chain named.

Experiments:
Assay type in all cases: cell-based
[1] = molecular target: T1, TREK-1^CG* (K2P2.1 (TREK-1) S131C) (Mus musculus, UniProt P97438, S146C); experiment: TEVC in Xenopus oocytes; details: for Reversibility of activation on washout: 20 μM, Xenopus oocytes
T1 construct: expressed in transfected cells; host or cells: Xenopus laevis oocytes injected with mRNA
T1 sequence (P97438 1-411 isoform P97438-2 S131C): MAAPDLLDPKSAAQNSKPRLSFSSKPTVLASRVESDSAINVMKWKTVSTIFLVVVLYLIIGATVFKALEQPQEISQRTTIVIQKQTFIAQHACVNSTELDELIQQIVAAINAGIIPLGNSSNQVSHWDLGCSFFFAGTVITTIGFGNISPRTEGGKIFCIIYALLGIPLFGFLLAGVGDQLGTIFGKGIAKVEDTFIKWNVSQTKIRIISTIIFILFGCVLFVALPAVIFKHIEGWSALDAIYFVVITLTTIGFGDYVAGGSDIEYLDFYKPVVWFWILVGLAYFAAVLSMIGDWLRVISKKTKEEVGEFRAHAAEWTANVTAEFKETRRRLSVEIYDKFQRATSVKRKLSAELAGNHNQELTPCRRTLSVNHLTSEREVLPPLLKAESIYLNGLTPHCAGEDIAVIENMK

G171F TREK-1^CG* = molecular target: T2, G171F TREK-1^CG* (Mus musculus, UniProt P97438, G186F/S146C); experiment: TEVC in Xenopus oocytes, attenuated channels; details: 20 μM; sequential addition of ML335, CAT335, BL-1249; 0 mV
T2 construct: expressed in transfected cells; host or cells: Xenopus laevis oocytes injected with mRNA
T2 sequence (P97438 1-411 isoform P97438-2 S131C/G171F): T1 sequence (P97438 1-411 isoform P97438-2 S131C) with G171F
Text: (§1) Mouse K2P2.1 (TREK-1) (Genbank accession number: NP_034737.2), mouse K2P10.1 (TREK-2) (NM_001316665.1), mouse K2P4.1 (TRAAK) (NM_008431.3), human K2P4.1 (TRAAK) (NM_033310.2) and mouse K2P18.1(TRESK) (NM_207261.3) were used for this study. Point mutations were introduced by site-directed mutagenesis using custom primers and confirmed by sequencing before use. For studies using Xenopus oocytes, K2P channels were subcloned into a previously reported pGEMHE/pMO vector (46). For expression in HEK293 cells, mouse K2P2.1 (TREK-1) and mutants were expressed from a previously described pIRES2-EGFP vector in HEK293 cells (46,47). K2P2.1 (TREK-1) tandems were constructed by connecting the open reading frames for the individual subunits with a linker encoding the […] (SEQ ID NO: 19) sequence. Tandems used for HEK293 cells included an N-terminal HA tag ([…] (SEQ ID NO: 20)) on the first subunit.
(§2) Xenopus laevis oocytes were harvested according to UCSF IACUC Protocol AN129690 and digested using collagenase (Worthington Biochemical Corporation, #LS004183, 0.8-1.0 mg/mL) in Ca^21-free ND96 (96 mM NaCl, 2 mM KCl, 3.8 mM MgCl2, 5 mM HEPES pH 7.4) immediately post-harvest, as previously reported (31,33). Oocytes were maintained at 18° C. in ND96 (96 mM NaCl, 2 mM KCl, 1.8 mM CaCl2, 2 mM MgCl2, 5 mM HEPES pH 7.4) supplemented with antibiotics (100 units mL^−1 penicillin, 100 μg mL^−1 streptomycin, 50 μg mL^−1 gentimycin) and used for experiments within one week of harvest.
(§3) Defolliculated stage V-VI oocytes were microinjected with 0.5-36 ng mRNA and currents were recorded within 16-48 h hours of injection.
(§4) For recordings, oocytes were impaled with borosilicate recording microelectrodes (0.4-2.0 MΩ resistance) backfilled with 3 M KCl and were subjected to constant perfusion of ND96 at a rate of 3 ml min^−1. Recording solutions containing K2P activators were prepared immediately prior to use from DMSO stocks (20-100 mM), with final DMSO concentrations of 0.1%. Currents were evoked from a −80 mV holding potential followed by a 300 ms ramp from −150 mV to +50 mV. Data were recorded using a GeneClamp 500B amplifier (MDS Analytical Technologies) controlled by pCLAMP8 software (Molecular Devices), and digitized at 1 kHz using Digidata 1332 Å digitizer (MDS Analytical Technologies). For each recording, control solution (ND96) was perfused over a single oocyte until current was stable before switching to solutions containing the test compounds at various concentrations. Representative traces and dose response plots were generated in GraphPad Prism 9.

A286F TREK-1^CG* = molecular target: T3, A286F TREK-1^CG* (Mus musculus, UniProt P97438, A301F/S146C); experiment: TEVC in Xenopus oocytes, attenuated channels; details: 20 μM; sequential addition of ML335, CAT335, BL-1249; 0 mV
T3 construct: expressed in transfected cells; host or cells: Xenopus laevis oocytes injected with mRNA
T3 sequence (P97438 1-411 isoform P97438-2 S131C/A286F): T1 sequence (P97438 1-411 isoform P97438-2 S131C) with A286F
Text: as §1, §2, §3, §4

| Reversibility of activation on washout [1] | Emax (IML335/Icontrol) ([1]; TEVC at 0 mV) | EC50 ([1]; TEVC at 0 mV, normalized to initial currents) | Fold-activation (I activator/I control) (G171F TREK-1^CG*) | Fold-activation (I activator/I control) (A286F TREK-1^CG*) | SMILES |
| --- | --- | --- | --- | --- | --- |
| immediate reversal | 9.6±0.8 fold activation | 18 ± 4 µM | – | – | CS(=O)(=O)Nc1ccc(C(=O)NCc2ccc(Cl)cc2Cl)cc1 [ML335, reference compound] |
| irreversible | – | – | 7.8±1.2 fold | 21±3 fold | O=C(NCc1ccc(Cl)cc1Cl)c1ccc(N2C(=O)C=CC2=O)cc1 [CAT335] |
| – | – | – | 62+3 fold | 53+5 fold | c1ccc(-c2nn[nH]n2)c(Nc2cccc3c2CCCC3)c1 [BL-1249, reference compound] |
